Data: article PMC2933614, “Quantitative in vitro and in vivo pharmacological profile of CE-178253, a potent and selective cannabinoid type 1 (CB1) Receptor Antagonist” (BMC Pharmacology, 2010)

Assays:
[1] = test system: other receptors, ion channels, and uptake sites (Table 2); test: Binding panel at 1 μM; conditions: any site of Table 2
Text: Rimonabant also binds weakly to the Vanilloid 1 (TRPV1) receptor channel. […] CE-178253 was not evaluated against TRPM8. Rimonabant has been reported to bind to TRPM8 [21].

human CB1 in CHO cells = molecular target: T1, human CB1 in CHO cells (Homo sapiens, UniProt P21554); test: GTPγ[35S] inverse agonist assay; format: biochemical
T1 construct: expressed in transfected cells
T1 sequence (P21554 whole entry): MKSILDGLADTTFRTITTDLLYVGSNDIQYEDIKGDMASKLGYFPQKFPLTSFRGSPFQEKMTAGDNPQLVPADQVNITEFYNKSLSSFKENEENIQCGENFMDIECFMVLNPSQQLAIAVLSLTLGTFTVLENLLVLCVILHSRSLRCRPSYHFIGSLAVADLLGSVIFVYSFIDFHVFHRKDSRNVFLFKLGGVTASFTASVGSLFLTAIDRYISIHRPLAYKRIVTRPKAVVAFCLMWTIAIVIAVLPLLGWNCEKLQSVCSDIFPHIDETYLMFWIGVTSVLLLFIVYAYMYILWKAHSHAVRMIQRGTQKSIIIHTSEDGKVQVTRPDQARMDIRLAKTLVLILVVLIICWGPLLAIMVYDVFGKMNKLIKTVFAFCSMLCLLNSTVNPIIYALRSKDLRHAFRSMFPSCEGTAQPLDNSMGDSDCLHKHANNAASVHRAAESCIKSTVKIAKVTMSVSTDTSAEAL
Procedure: GTPγ[^35S] binding assays were performed as described. GTPγ[^35S] binding assays were performed in a 96-well FlashPlate™ format in duplicate using 100 pM GTPγ[^35S] and 10 μg membrane per well in assay buffer composed of 50 mM Tris HCl (pH 7.4); 3 mM MgCl2 (pH 7.4); 10 mM MgCl2, 20 mM EGTA, 100 mM NaCl, 30 μM GDP, 0.1% BSA and the following protease inhibitors: 100 μg/ml bacitracin, 100 μg/ml benzamidine, 5 μg/ml aprotinin, and 5 μg/ml leupeptin. […] Assays were performed at 30°C for 1 hr. The FlashPlates™ were then centrifuged at 2000×g for 10 min. Stimulation of GTPγ[^35S] binding was then quantified using a Wallac Microbeta® [16].

[2] = molecular target: T2, rat brain membranes (predominantly CB1) (Rattus norvegicus, UniProt P20272); test: Competition radioligand binding, rat brain membranes
T2 construct: In rat membranes prepared from whole brain; from tissue; host or cells: rat whole brain membranes
T2 sequence (P20272 whole entry): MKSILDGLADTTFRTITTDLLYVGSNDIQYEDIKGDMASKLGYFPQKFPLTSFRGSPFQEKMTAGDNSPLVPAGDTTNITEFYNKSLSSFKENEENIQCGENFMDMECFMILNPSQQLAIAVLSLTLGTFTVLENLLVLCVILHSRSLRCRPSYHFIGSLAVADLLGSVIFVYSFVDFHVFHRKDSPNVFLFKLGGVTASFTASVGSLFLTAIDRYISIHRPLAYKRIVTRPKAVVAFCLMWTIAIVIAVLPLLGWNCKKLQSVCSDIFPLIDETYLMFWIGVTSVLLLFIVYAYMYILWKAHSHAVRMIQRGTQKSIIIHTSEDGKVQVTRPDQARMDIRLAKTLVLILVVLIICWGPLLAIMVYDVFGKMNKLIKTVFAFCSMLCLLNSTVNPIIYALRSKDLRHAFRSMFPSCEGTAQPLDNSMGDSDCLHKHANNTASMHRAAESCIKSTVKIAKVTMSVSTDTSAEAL
Procedure: HEK293 (CB1) or CHO (CB1 and CB2) cells (ATCC) were stably transfected with the human CB1 or CB2 receptors. Rat brain, and recombinant CB1 and CB2 and membranes were prepared as described. A Pierce™ BCA kit was used to determine protein concentrations.
10 μg of membranes per well from human CB1 and CB 2 receptor transfected cells and rat brain was used in the assay. The plates were covered and placed in an incubator at 30°C for 60 min. At the end of the incubation period 125 μl of stop buffer (10% BSA plus TME) was added to the reaction plate. The plates were then harvested onto GF/C filter plates (Perkin Elmer Life Sciences) presoaked in BSA (5 mg/ml) plus TME. Each filter was washed twice with TME and dried overnight. In the morning the filters were counted on a Wallac Trilux™ counter.
Saturation and competition radioligand binding assays were used to characterize membranes prepared from human recombinant CB1 and CB2 and rat brain membranes.

[3] = Four day chow-fed rat food intake and body weight study; format: in vivo; conditions: chow-fed rats
Procedure: CE-178253 was evaluated in 4-day chow-fed and DIO S-D rat studies. Male 12-16 week old S-D rats which had been maintained on regular chow were singly housed and acclimated to handling and dosing and two days of food intake were recorded to establish baseline food intake values before dosing was initiated. The animals were randomly sorted and assigned to treatment groups (n = 7-8 per group). Two studies were performed. In study 1 (age = 12 weeks) the mean starting weight of all animals was 370 ± 6 g. In study 2 (age = 16 weeks) the mean starting weight of all animals was 431 ± 11 g. Rats were dosed (2 mls/kg) with veh. or CE-178253 according to body weight. FI and BW were recorded daily.
CE-178253 was also evaluated in chow-fed rats in a 4 day FI and BW study. Rats were treated once daily with veh. (0.5% MC) or CE-178253. In the first study the same doses used in the DIO study were used to compare FI and BW efficacy. […] CE-178253 was clearly efficacious in acute food intake studies in chow-fed rats up to 12 hours (Figure 3). A comparison of 24 hr FI in chow-fed and DIO rats yielded different efficacy in response to CE-178253 treatment. The 1 mg/kg dose yielded an 8% decrease in 24 hr FI compared to veh-treated animals (p = 0.053). […] Initial and final body weights of veh-treated rats were 371 ± 7 g and 390 ± 7 g (n = 8), respectively. Initial and final body weights of 0.3 mg/kg CE-178253-treated rats were 374 ± 7 g and 388 ± 9 g, respectively. Initial and final body weights of 1 mg/kg CE-178253-treated rats were 373 ± 7 g and 390 ± 9 g, (respectively.
Based on the weak efficacy observed at the 0.3 and 1 mg/kg doses the study was repeated using higher doses of CE-178253 (Figures 7A and 7B). At 3 and 10 mg/kg (QD, p.o.) doses, statistically significant decreases in FI and BW were observed. Initial and final body weights of veh.-treated rats were 435 ± 11 g and 451 ± 12 g (n = 8), respectively, […]. Initial and final body weights of 3 mg/kg CE-178253-treated rats were 436 ± 9 g and 427 ± 9 g, respectively, a 2% decline. Initial and final body weights of 10 mg/kg CE-178253-treated rats were 435 ± 11 g and 430 ± 10 g, respectively, […]. […] Thus, as has been reported for other CB1 receptor antagonists it is likely that DIO rats are more sensitive to the anorectic and weight loss effect of CE-178253.

[4] = Fast-induced re-feeding food intake; format: in vivo, rat; conditions: for Food Intake % decrease (mean ± SEM): 2 hr after return of food
Text: All animal studies were approved by the Institutional Animal Care and Use Committee. Male Sprague Dawley rats on normal chow (8 weeks old, 250-300 g on arrival, 300-350 g on test day) were obtained from Charles River. After arrival, animals were individually housed and placed on powdered rat chow. Rats were maintained on a 12-hr light/dark cycle and received food and water ad libitum. In all studies CE-178253 and veh (0.5% methyl cellulose) administration to rats and mice was by oral gavage.
For the fast-induced re-feeding assay, food was removed from the cages the afternoon preceding the test day and the rats were fasted overnight. After the overnight fast, rats were administered veh. or CE-178253. […]
Administration of CE-178253 to male S-D rats inhibited overnight fast-induced refeeding. S-D rats were fasted overnight and veh. (0.5% methylcellulose; MC) or CE-178253 was administered orally. Food was provided to the rats 30 min after dosing. Food intake was measured 30 min and 2 hr after return of food. Dose- and unbound plasma concentration-dependent decreases in cumulative FI versus veh. were observed (Figure 4A, B, Table 3) at both time points after return of food. However, the efficacy (as a percent) was greater in the 0.5-2 hr interval than in the first 0.5 interval. In contrast, FI efficacy in the dark-phase feeding was consistent throughout the first four hr (Figure 3B).

With `CCNC1(C(N)=O)CN(c2nc(C)nc3c(-c4ccc(Cl)cc4)c(-c4ccccc4Cl)nn23)C1` [CE-178253] the “Inhibition of binding at panel sites” value [1] was ≤ 50%, the “Inverse agonist potency weaker than binding potency” value (human CB1 in CHO cells) was 6 fold and the “Inverse agonist potency weaker than functional potency” value (human CB1 in CHO cells) was 29 fold. It also gave an IC50 (human CB1 in CHO cells; decrease in basal GTPγ[35S] binding) of 2 ± 0.56 nM, an Emax (human CB1 in CHO cells; percent decrease in basal GTPγ[35S] binding, read-out: Intrinsic Activity) of 21% and a Ki [2] of 0.43 ± 0.13 nM. For the same compound, the Final body weight ([3]; 0.3 mg/kg, 4 day, initial 374 ± 7 g) was 388 ± 9 g, the Final body weight ([3]; 1 mg/kg, 4 day, initial 373 ± 7 g) was 390 ± 9 g and the “Decrease in 24 hr FI compared to veh-treated animals” value ([3]; 1 mg/kg, p = 0.053) was 8%. For the same compound, the “Decline in body weight, initial to final” value ([3]; 3 mg/kg QD p.o., 4 day) was 2%, the Final body weight ([3]; 3 mg/kg QD p.o., 4 day, initial 436 ± 9 g) was 427 ± 9 g and the “Increase in body weight, initial to final” value ([3]; 10 mg/kg QD p.o., 4 day) was 1%. The Final body weight ([3]; 10 mg/kg QD p.o., 4 day, initial 435 ± 11 g) was 430 ± 10 g, the “BW changes vs veh” value ([3]; 0.3 and 1 mg/kg dosing groups, 4 day) was “No statistically significant differences” and the “Food Intake % decrease (mean ± SEM)” value ([4]; 0.3 mg/kg p.o.) was 6 ± 3%. For the same compound, the “Food Intake % decrease (mean ± SEM)” value ([4]; 1 mg/kg p.o.) was 25 ± 11%, the “Food Intake % decrease (mean ± SEM)” value ([4]; 3 mg/kg p.o.) was 62 ± 5.2 % and the “Food Intake % decrease (mean ± SEM)” value ([4]; 10 mg/kg p.o.) was 75 ± 6.2 %. The EC50 ([4]; Rattus norvegicus, […], read-out: EC50, reduction of food intake) was 0.95 nM, the “Reduction in FI” value ([4]; interval between dosing and return of food extended to 2 hr, at 50% receptor occupancy, p < 0.05) was 27% and the “Maximal FI reduction” value ([4]; two hr) was 70%.
